Measurements from the NIST ThermoML archive (doi:10.1021/je050200w).
± gives the expanded uncertainty stated by the source.

Experiment: xn = mol fraction of the nth substance listed
Conditions: 101 kPa, Liquid

CCCCCCCCCO [nonan-1-ol] + CCCCCCCCCCO
Conditions	mass density [kg/m3]	viscosity [mPa·s]
283.15 K, x1 = 0.1009	836.5 ± 0.6	21.5 ± 0.56
283.15 K, x1 = 0.2	836.4 ± 0.6	21.12 ± 0.55
283.15 K, x1 = 0.3	836.2 ± 0.7	20.65 ± 0.54
283.15 K, x1 = 0.4002	836 ± 0.7	20.15 ± 0.53
283.15 K, x1 = 0.5001	835.9 ± 0.7	19.71 ± 0.53
283.15 K, x1 = 0.6003	835.7 ± 0.8	19.17 ± 0.52
283.15 K, x1 = 0.6996	835.6 ± 0.8	18.59 ± 0.5
283.15 K, x1 = 0.7999	835.4 ± 0.9	18.14 ± 0.5
283.15 K, x1 = 0.9047	835.2 ± 0.9	17.78 ± 0.49
283.15 K, x1 = 1	835 ± 0.9	17.44 ± 0.48
288.15 K, x1 = 0.1009	833.2 ± 0.6	17.44 ± 0.46
288.15 K, x1 = 0.2	833 ± 0.6	17.06 ± 0.46
288.15 K, x1 = 0.3	832.8 ± 0.7	16.69 ± 0.45
288.15 K, x1 = 0.3999	832.7 ± 0.7	16.2 ± 0.44
288.15 K, x1 = 0.5001	832.5 ± 0.7	15.82 ± 0.43
288.15 K, x1 = 0.6003	832.3 ± 0.8	15.44 ± 0.42
288.15 K, x1 = 0.6996	832.2 ± 0.8	15.2 ± 0.42
288.15 K, x1 = 0.7999	832 ± 0.9	14.85 ± 0.41
288.15 K, x1 = 0.9047	831.8 ± 0.9	14.48 ± 0.41
288.15 K, x1 = 1	831.5 ± 0.9	14.27 ± 0.4
293.15 K, x1 = 0.1009	829.8 ± 0.6	14.1 ± 0.38
293.15 K, x1 = 0.2	829.6 ± 0.6	13.73 ± 0.38
293.15 K, x1 = 0.3	829.5 ± 0.7	13.5 ± 0.37
293.15 K, x1 = 0.3999	829.3 ± 0.7	13.22 ± 0.37
293.15 K, x1 = 0.5	829.1 ± 0.7	13 ± 0.36
293.15 K, x1 = 0.6003	829 ± 0.8	12.48 ± 0.35
293.15 K, x1 = 0.6996	828.8 ± 0.8	12.36 ± 0.35
293.15 K, x1 = 0.7999	828.6 ± 0.9	12.09 ± 0.34
293.15 K, x1 = 0.9047	828.4 ± 0.9	11.83 ± 0.34
293.15 K, x1 = 1	828.1 ± 0.9	11.63 ± 0.34
298.15 K, x1 = 0.1009	826.4 ± 0.6	11.52 ± 0.32
298.15 K, x1 = 0.2	826.2 ± 0.6	11.36 ± 0.32
298.15 K, x1 = 0.3	826.1 ± 0.7	11.13 ± 0.31
298.15 K, x1 = 0.4002	825.9 ± 0.7	10.87 ± 0.31
298.15 K, x1 = 0.5	825.7 ± 0.7	10.62 ± 0.3
298.15 K, x1 = 0.6003	825.5 ± 0.8	10.38 ± 0.3
298.15 K, x1 = 0.6996	825.4 ± 0.8	10.17 ± 0.3
298.15 K, x1 = 0.7999	825.1 ± 0.9	9.933 ± 0.29
298.15 K, x1 = 0.9047	824.9 ± 0.9	9.725 ± 0.29
298.15 K, x1 = 1	824.7 ± 0.9	9.519 ± 0.28
303.15 K, x1 = 0.1009	822.9 ± 0.6	9.398 ± 0.27
303.15 K, x1 = 0.2	822.8 ± 0.6	9.242 ± 0.27
303.15 K, x1 = 0.3	822.6 ± 0.7	9.083 ± 0.26
303.15 K, x1 = 0.4002	822.4 ± 0.7	8.886 ± 0.26
303.15 K, x1 = 0.5001	822.2 ± 0.7	8.703 ± 0.26
303.15 K, x1 = 0.6003	822 ± 0.8	8.504 ± 0.25
303.15 K, x1 = 0.6996	821.9 ± 0.8	8.332 ± 0.25
303.15 K, x1 = 0.7999	821.7 ± 0.9	8.16 ± 0.25
303.15 K, x1 = 0.9047	821.5 ± 0.9	7.929 ± 0.24
303.15 K, x1 = 1	821.3 ± 0.9	7.806 ± 0.24
308.15 K, x1 = 0.1009	819.5 ± 0.6	7.867 ± 0.23
308.15 K, x1 = 0.2	819.4 ± 0.6	7.739 ± 0.23
308.15 K, x1 = 0.3	819.1 ± 0.7	7.613 ± 0.23
308.15 K, x1 = 0.4002	819 ± 0.7	7.453 ± 0.23
308.15 K, x1 = 0.5	818.8 ± 0.7	7.307 ± 0.22
308.15 K, x1 = 0.6003	818.6 ± 0.8	7.151 ± 0.22
308.15 K, x1 = 0.6996	818.5 ± 0.8	7.014 ± 0.22
308.15 K, x1 = 0.7999	818.3 ± 0.9	6.857 ± 0.21
308.15 K, x1 = 0.9047	818 ± 0.9	6.693 ± 0.21
308.15 K, x1 = 1	817.8 ± 0.9	6.604 ± 0.21
313.15 K, x1 = 0.1009	816.1 ± 0.6	6.704 ± 0.21
313.15 K, x1 = 0.2	815.9 ± 0.6	6.629 ± 0.2
313.15 K, x1 = 0.3	815.7 ± 0.7	6.517 ± 0.2
313.15 K, x1 = 0.4002	815.6 ± 0.7	6.4 ± 0.2
313.15 K, x1 = 0.5001	815.3 ± 0.7	6.234 ± 0.2
313.15 K, x1 = 0.6003	815.2 ± 0.8	6.15 ± 0.2
313.15 K, x1 = 0.6996	815 ± 0.8	6.026 ± 0.19
313.15 K, x1 = 0.7999	814.8 ± 0.9	5.87 ± 0.19
313.15 K, x1 = 0.9047	814.5 ± 0.9	5.779 ± 0.19
313.15 K, x1 = 1	814.3 ± 0.9	5.668 ± 0.19

CCCCCCCCCO [nonan-1-ol] + CCCCCCCCO
Conditions	mass density [kg/m3]	viscosity [mPa·s]
283.15 K, x2 = 0	835 ± 0.9	17.44 ± 0.48
283.15 K, x2 = 0.1001	834.6 ± 0.9	16.99 ± 0.47
283.15 K, x2 = 0.1998	834.4 ± 0.9	16.57 ± 0.46
283.15 K, x2 = 0.2999	834.1 ± 0.8	16.21 ± 0.44
283.15 K, x2 = 0.4003	833.8 ± 0.8	15.79 ± 0.43
283.15 K, x2 = 0.5001	833.5 ± 0.7	15.41 ± 0.42
283.15 K, x2 = 0.6001	833.2 ± 0.7	15.01 ± 0.41
283.15 K, x2 = 0.7	832.9 ± 0.7	14.55 ± 0.4
283.15 K, x2 = 0.8001	832.7 ± 0.6	14.21 ± 0.39
283.15 K, x2 = 0.9001	832.3 ± 0.6	13.9 ± 0.38
288.15 K, x2 = 0	831.5 ± 0.9	14.27 ± 0.4
288.15 K, x2 = 0.1001	831.3 ± 0.9	13.92 ± 0.39
288.15 K, x2 = 0.1998	831 ± 0.9	13.61 ± 0.38
288.15 K, x2 = 0.2999	830.7 ± 0.8	13.2 ± 0.37
288.15 K, x2 = 0.4003	830.4 ± 0.8	12.83 ± 0.36
288.15 K, x2 = 0.5001	830.1 ± 0.7	12.5 ± 0.35
288.15 K, x2 = 0.6001	829.8 ± 0.7	12.26 ± 0.34
288.15 K, x2 = 0.7	829.5 ± 0.7	11.97 ± 0.33
288.15 K, x2 = 0.8001	829.3 ± 0.6	11.59 ± 0.32
288.15 K, x2 = 0.9001	828.9 ± 0.6	11.33 ± 0.32
293.15 K, x2 = 0	828.1 ± 0.9	11.63 ± 0.34
293.15 K, x2 = 0.1001	827.8 ± 0.9	11.38 ± 0.33
293.15 K, x2 = 0.1998	827.6 ± 0.9	11.12 ± 0.32
293.15 K, x2 = 0.2999	827.3 ± 0.8	10.79 ± 0.31
293.15 K, x2 = 0.4003	827 ± 0.8	10.55 ± 0.3
293.15 K, x2 = 0.5001	826.7 ± 0.7	10.26 ± 0.3
293.15 K, x2 = 0.6001	826.4 ± 0.7	10.04 ± 0.29
293.15 K, x2 = 0.7	826.1 ± 0.7	9.838 ± 0.28
293.15 K, x2 = 0.8001	825.8 ± 0.6	9.525 ± 0.27
293.15 K, x2 = 0.9001	825.5 ± 0.6	9.303 ± 0.27
298.15 K, x2 = 0	824.7 ± 0.9	9.519 ± 0.28
298.15 K, x2 = 0.1001	824.4 ± 0.9	9.353 ± 0.28
298.15 K, x2 = 0.1998	824.1 ± 0.9	9.135 ± 0.27
298.15 K, x2 = 0.2997	823.8 ± 0.8	8.957 ± 0.27
298.15 K, x2 = 0.4003	823.5 ± 0.8	8.749 ± 0.26
298.15 K, x2 = 0.4996	823.2 ± 0.7	8.582 ± 0.25
298.15 K, x2 = 0.6001	822.9 ± 0.7	8.43 ± 0.25
298.15 K, x2 = 0.7	822.6 ± 0.7	8.238 ± 0.24
298.15 K, x2 = 0.8001	822.4 ± 0.6	7.976 ± 0.24
298.15 K, x2 = 0.9001	822 ± 0.6	7.786 ± 0.23
303.15 K, x2 = 0	821.3 ± 0.9	7.806 ± 0.24
303.15 K, x2 = 0.1001	821 ± 0.9	7.679 ± 0.24
303.15 K, x2 = 0.1998	820.7 ± 0.9	7.537 ± 0.23
303.15 K, x2 = 0.2997	820.4 ± 0.8	7.35 ± 0.23
303.15 K, x2 = 0.4003	820.1 ± 0.8	7.171 ± 0.22
303.15 K, x2 = 0.5001	819.8 ± 0.7	7.057 ± 0.22
303.15 K, x2 = 0.6001	819.5 ± 0.7	6.936 ± 0.21
303.15 K, x2 = 0.7	819.2 ± 0.7	6.779 ± 0.21
303.15 K, x2 = 0.8001	818.9 ± 0.6	6.634 ± 0.2
303.15 K, x2 = 0.9001	818.6 ± 0.6	6.494 ± 0.2
308.15 K, x2 = 0	817.8 ± 0.9	6.604 ± 0.21
308.15 K, x2 = 0.1001	817.5 ± 0.9	6.479 ± 0.21
308.15 K, x2 = 0.1998	817.2 ± 0.9	6.356 ± 0.2
308.15 K, x2 = 0.2999	816.9 ± 0.8	6.212 ± 0.2
308.15 K, x2 = 0.4003	816.6 ± 0.8	6.055 ± 0.19
308.15 K, x2 = 0.5001	816.3 ± 0.7	5.963 ± 0.19
308.15 K, x2 = 0.6001	816 ± 0.7	5.862 ± 0.19
308.15 K, x2 = 0.7	815.7 ± 0.7	5.743 ± 0.18
308.15 K, x2 = 0.8001	815.4 ± 0.6	5.625 ± 0.18
308.15 K, x2 = 0.9001	815 ± 0.6	5.51 ± 0.18
313.15 K, x2 = 0	814.3 ± 0.9	5.668 ± 0.19
313.15 K, x2 = 0.1001	814 ± 0.9	5.579 ± 0.18
313.15 K, x2 = 0.1998	813.7 ± 0.9	5.458 ± 0.18
313.15 K, x2 = 0.2999	813.4 ± 0.8	5.377 ± 0.18
313.15 K, x2 = 0.4003	813.1 ± 0.8	5.258 ± 0.17
313.15 K, x2 = 0.5001	812.8 ± 0.7	5.181 ± 0.17
313.15 K, x2 = 0.6001	812.5 ± 0.7	5.068 ± 0.17
313.15 K, x2 = 0.7	812.2 ± 0.7	4.957 ± 0.17
313.15 K, x2 = 0.8001	812 ± 0.6	4.872 ± 0.16
313.15 K, x2 = 0.9001	811.6 ± 0.6	4.773 ± 0.16
